Test results published in PubChem BioAssay (NCI).
Values joined by “and” are separate entries in the source; they are usually repeats but may differ in a detail not shown here. Equal values may be shown once.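 Cultured in 96-well plates, cells were exposed to test compound for 48 hours across five concentrations. Abbreviation: GI50, concentration required for 50% inhibition of growth. TGI: concentration producing complete growth inhibition.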

Key:
Assay in all cases: NCI-60 cell line screen, 48 h
SN12C renal = tested on: SN12C renal
RXF 393 renal = tested on: RXF 393 renal
OVCAR-5 ovarian = tested on: OVCAR-5 ovarian
HOP-62 NSCLC = tested on: HOP-62 NSCLC
OVCAR-8 ovarian = tested on: OVCAR-8 ovarian
LOX IMVI melanoma = tested on: LOX IMVI melanoma
HCC-2998 colon = tested on: HCC-2998 colon
OVCAR-3 ovarian = tested on: OVCAR-3 ovarian

Compound: NC(=S)N1N=C2CCCCCC[C@@H]2[C@H]1c1ccccc1
- TGI (SN12C renal): > 100 µM
- TGI (RXF 393 renal): > 100 µM
- TGI (OVCAR-5 ovarian): > 100 µM
- TGI (HOP-62 NSCLC): > 100 µM
- TGI (OVCAR-8 ovarian): > 100 µM
- TGI (LOX IMVI melanoma): > 100 µM
- TGI (HCC-2998 colon): > 100 µM
- TGI (OVCAR-3 ovarian): > 100 µM

Compound: O=C1CCCCCCC2=C1C(Sc1ccccc1)CC2 (stereo not drawn)
- TGI (SN12C renal): 42.3 µM
- TGI (RXF 393 renal): 48.6 µM
- TGI (HOP-62 NSCLC): > 100 µM
- TGI (OVCAR-8 ovarian): 54 µM
- TGI (LOX IMVI melanoma): 30.7 µM

Compound: CCC[CH2][Sn](=[O])[CH2]CCC
- GI50 (SN12C renal): > 50 µM
- TGI (SN12C renal): > 50 µM
- GI50 (RXF 393 renal): 47.7 µM
- TGI (RXF 393 renal): > 50 µM
- GI50 (OVCAR-5 ovarian): > 30.3 µM
- TGI (OVCAR-5 ovarian): > 50 µM
- GI50 (HOP-62 NSCLC): > 50 µM
- TGI (HOP-62 NSCLC): > 50 µM
- GI50 (OVCAR-8 ovarian): > 50 µM
- TGI (OVCAR-8 ovarian): > 50 µM
- GI50 (LOX IMVI melanoma): > 50 µM
- TGI (LOX IMVI melanoma): > 50 µM
- GI50 (HCC-2998 colon): > 50 µM
- TGI (HCC-2998 colon): > 50 µM
- GI50 (OVCAR-3 ovarian): > 50 µM
- TGI (OVCAR-3 ovarian): > 50 µM

Compound: CC(C)(C)C1=CC(=N/N=c2\scc(-c3ccccc3)n2-c2ccccc2)C=C(C(C)(C)C)C1=O
- TGI (SN12C renal): > 100 µM
- TGI (RXF 393 renal): > 100 µM
- TGI (OVCAR-5 ovarian): > 100 µM
- TGI (HOP-62 NSCLC): > 100 µM
- TGI (OVCAR-8 ovarian): > 100 µM
- TGI (LOX IMVI melanoma): > 100 µM
- TGI (HCC-2998 colon): > 100 µM
- TGI (OVCAR-3 ovarian): > 100 µM

Compound: COc1ccc2c(c1)c(-c1nc(-c3cn(C)c4ccncc34)cs1)cn2C
- GI50 (SN12C renal): 1.85 µM
- TGI (SN12C renal): 3.49 µM
- GI50 (RXF 393 renal): 1.71 µM
- TGI (RXF 393 renal): 3.21 µM
- GI50 (OVCAR-5 ovarian): 1.81 µM
- TGI (OVCAR-5 ovarian): 3.53 µM
- GI50 (HOP-62 NSCLC): 1.9 µM
- TGI (HOP-62 NSCLC): 3.62 µM
- GI50 (HCC-2998 colon): 1.89 µM
- TGI (HCC-2998 colon): 3.38 µM
- GI50 (OVCAR-3 ovarian): 1.99 µM
- TGI (OVCAR-3 ovarian): 3.77 µM

Compound: CC(=O)OCc1c(O)c2c([nH]c1=O)CCc1ccccc1-2
- TGI (SN12C renal): 155 µM
- TGI (RXF 393 renal): 105 µM
- TGI (HOP-62 NSCLC): > 350 µM
- TGI (OVCAR-8 ovarian): 291 µM
- TGI (LOX IMVI melanoma): 131 µM
- TGI (HCC-2998 colon): 197 µM
- TGI (OVCAR-3 ovarian): 102 µM

Compound: CCN(CC)CCN(CC)CC.CCN(CC)CCN(CC)CC.[Cu+2].[Cu+2].[O-][Cl+3]([O-])([O-])[O-].[OH3+].[OH3+]
- GI50 (SN12C renal): 90.7 µM
- TGI (SN12C renal): > 100 µM
- GI50 (HOP-62 NSCLC): 22.5 µM
- TGI (HOP-62 NSCLC): 40.3 µM
- GI50 (OVCAR-8 ovarian): > 100 µM
- TGI (OVCAR-8 ovarian): > 100 µM
- GI50 (LOX IMVI melanoma): 14.4 µM
- TGI (LOX IMVI melanoma): 45.7 µM
- GI50 (OVCAR-3 ovarian): 23.9 µM
- TGI (OVCAR-3 ovarian): 55.8 µM

Compound: CCOC(=O)C1(C(=O)OCC)C(C(C)(C)C)=C(C)c2ccccc21
- TGI (SN12C renal): 28.7 µM
- TGI (RXF 393 renal): 26.6 µM
- TGI (OVCAR-5 ovarian): 31.4 µM
- TGI (HOP-62 NSCLC): 36.3 µM
- TGI (OVCAR-8 ovarian): 66.1 µM
- TGI (LOX IMVI melanoma): 25 µM
- TGI (HCC-2998 colon): 31.2 µM
- TGI (OVCAR-3 ovarian): 24.9 µM

Compound: O=C(C[n+]1ccccc1)N/N=C(/CCC(=O)N(Cc1ccccc1)Cc1ccccc1)CC(=O)c1ccccc1
- TGI (SN12C renal): > 100 µM
- TGI (RXF 393 renal): > 100 µM
- TGI (OVCAR-5 ovarian): > 100 µM
- TGI (HOP-62 NSCLC): > 100 µM
- TGI (OVCAR-8 ovarian): > 100 µM
- TGI (LOX IMVI melanoma): > 100 µM
- TGI (HCC-2998 colon): > 100 µM
- TGI (OVCAR-3 ovarian): > 100 µM

Compound: CC(=O)OC12C(C)=C(C)C(=O)N1c1ccccc1N2C(C)=O (stereo not drawn)
- TGI (RXF 393 renal): > 100 µM
- TGI (OVCAR-5 ovarian): > 100 µM
- TGI (HOP-62 NSCLC): > 100 µM
- TGI (OVCAR-8 ovarian): > 100 µM
- TGI (LOX IMVI melanoma): > 100 µM
- TGI (HCC-2998 colon): > 100 µM
- TGI (OVCAR-3 ovarian): > 100 µM

Compound: COc1ccc(/C=C/c2cc(OC)c(OC(C)=O)c(OC)c2)cc1
- TGI (SN12C renal): 75.2 µM
- TGI (OVCAR-5 ovarian): 59 µM
- TGI (HOP-62 NSCLC): 73.7 µM
- TGI (OVCAR-8 ovarian): > 100 µM
- TGI (HCC-2998 colon): 39 µM
- TGI (OVCAR-3 ovarian): > 100 µM

Compound: Cc1ccc(NCC2(/N=C/c3ccccc3)OC(CO)C(O)C2O)cc1 (stereo not drawn)
- TGI (OVCAR-5 ovarian): > 100 µM
- TGI (HOP-62 NSCLC): > 100 µM
- TGI (OVCAR-8 ovarian): > 100 µM
- TGI (HCC-2998 colon): > 100 µM
- TGI (OVCAR-3 ovarian): > 100 µM

Compound: CCCCN(CC)C(=O)C(=O)Cc1nc2ccc(C(=O)c3ccccc3)cc2[nH]c1=O
- TGI (SN12C renal): > 100 µM
- TGI (RXF 393 renal): 92 µM
- TGI (OVCAR-5 ovarian): > 100 µM
- TGI (HOP-62 NSCLC): > 100 µM
- TGI (OVCAR-8 ovarian): > 100 µM
- TGI (LOX IMVI melanoma): > 100 µM
- TGI (OVCAR-3 ovarian): > 100 µM

Compound: O=[N+]([O-])c1nccn1CC(O)c1ccccc1 (stereo not drawn)
- TGI (SN12C renal): > 100 µM
- TGI (RXF 393 renal): > 100 µM
- TGI (OVCAR-5 ovarian): > 100 µM
- TGI (HOP-62 NSCLC): > 100 µM
- TGI (OVCAR-8 ovarian): > 100 µM
- TGI (LOX IMVI melanoma): > 100 µM
- TGI (OVCAR-3 ovarian): > 100 µM

Compound: CC(Oc1ccc2c(-c3ccc(Cl)cc3)cc(=O)oc2c1)C(=O)O (stereo not drawn)
- TGI (SN12C renal): > 100 µM
- TGI (RXF 393 renal): > 100 µM
- TGI (HOP-62 NSCLC): > 100 µM
- TGI (OVCAR-8 ovarian): > 100 µM
- TGI (LOX IMVI melanoma): > 100 µM
- TGI (HCC-2998 colon): > 100 µM
- TGI (OVCAR-3 ovarian): > 100 µM

Compound: CC(C)(C)C(=O)N1C(C(=O)O)Cc2ccccc2[C@@H]1Cc1ccccc1 (stereo partly drawn)
- TGI (SN12C renal): > 100 µM
- TGI (RXF 393 renal): > 100 µM
- TGI (OVCAR-5 ovarian): > 100 µM
- TGI (HOP-62 NSCLC): > 100 µM
- TGI (OVCAR-8 ovarian): > 100 µM
- TGI (HCC-2998 colon): > 100 µM
- TGI (OVCAR-3 ovarian): > 100 µM

Compound: COc1ccc(N2C(=O)C3CC(c4ccc(Br)cc4)c4c([nH]c5ccccc45)C3C2=O)cc1 (stereo not drawn)
- TGI (SN12C renal): 15.2 µM
- TGI (OVCAR-5 ovarian): 73.4 µM
- TGI (HOP-62 NSCLC): 11.5 µM
- TGI (OVCAR-8 ovarian): 5.96 µM
- TGI (LOX IMVI melanoma): 16.3 µM

Compound: c1ccc(SC(Sc2ccccc2)=C2CCC2)cc1
- TGI (SN12C renal): > 100 µM
- TGI (RXF 393 renal): > 100 µM
- TGI (HOP-62 NSCLC): > 100 µM
- TGI (OVCAR-8 ovarian): > 100 µM
- TGI (LOX IMVI melanoma): > 100 µM
- TGI (OVCAR-3 ovarian): > 100 µM

Compound: CCOC(=O)C12CCCC1(O)N(NC(=O)OC)C(C)=C2C(=O)OC (stereo not drawn)
- TGI (SN12C renal): > 100 µM
- TGI (OVCAR-5 ovarian): > 100 µM
- TGI (HOP-62 NSCLC): > 100 µM
- TGI (OVCAR-8 ovarian): > 100 µM
- TGI (LOX IMVI melanoma): > 100 µM
- TGI (HCC-2998 colon): > 100 µM
- TGI (OVCAR-3 ovarian): > 10 µM

Compound: Nc1ncc(-c2ccc3ncnc(Nc4cccc(Cl)c4)c3c2)cn1
- GI50 (SN12C renal): 1.82 µM
- TGI (SN12C renal): > 100 µM
- GI50 (HOP-62 NSCLC): 0.388 µM and 2.98 µM
- TGI (HOP-62 NSCLC): > 100 µM
- GI50 (OVCAR-8 ovarian): 2.87 µM
- TGI (OVCAR-8 ovarian): > 100 µM

Compound: O=C(CC1(O)C(=O)Nc2c(Cl)cc(Cl)cc21)c1ccccc1 (stereo not drawn)
- TGI (SN12C renal): > 100 µM
- TGI (RXF 393 renal): > 100 µM
- TGI (OVCAR-5 ovarian): > 100 µM
- TGI (OVCAR-8 ovarian): > 100 µM
- TGI (LOX IMVI melanoma): > 100 µM
- TGI (OVCAR-3 ovarian): > 100 µM
